In PubChem BioAssay (NCI) one finds GI50 and TGI data, which are given here for 15 compounds.

Test in all cases: inhibition of tumour cell growth, NCI panel, 48 h
The test system of test [1] is CCRF-CEM leukemia.
For test [2], the system named is HCT-116 colon.
For test [3], the system named is K-562 leukemia.
The subject of test [4] is M14 melanoma.
In test [5] the test system is NCI/ADR-RES ovarian.
Test [6] concerns PC-3 prostate.
The subject of test [7] is RPMI-8226 leukemia.
For test [8], the system named is SK-MEL-5 melanoma.
For test [9], the system named is SK-OV-3 ovarian.
The subject of test [10] is SW-620 colon.

“And” between values parts separate entries of the source, which are not always exact repeats. Equal entries are not always repeated.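 Method: 48-hour compound exposure of cells in 96-well plates, five concentrations, linear interpolation of endpoints. The concentration for 50% growth inhibition is given as GI50. At the TGI there is no net growth.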 Where a SMILES comes first, the peptide text is derived from it. [ ]: non-standard residue; d: D form. Orn = NCCC[CH](N)C(=O)O Some results are limits rather than exact numbers.

As for `CC(C)CC1NC(=O)C(CCCN)NC(=O)C(C(C)C)NC(=O)C2CCCN2C(=O)C(Cc2ccccc2)NC(=O)C(CC(C)C)NC(=O)C(CCCN)NC(=O)C(C(C)C)NC(=O)C2CCCN2C(=O)C(Cc2ccccc2)NC1=O` (centres undefined) (cyclo(FPV[Orn]LFPV[Orn]L); configuration not given here), the GI50 in [1] was 0.00814 µM; in test [2], 0.0102 µM and 0.0167 µM; in test [3] it was less than 0.00325 µM; in test [4], 0.0101 µM; in test [5] it was 0.614 µM and 2.14 µM; in test [6], 0.00703 µM. Further, the GI50 in test [7] was < 0.00325 µM and 0.0114 µM; in test [8], 0.00725 µM; in test [9], 0.0108 µM; in [10] it was 0.0123 µM and 0.0239 µM. Also, the TGI is 0.32 µM in test [1]; 0.122 µM and 0.213 µM in test [2]; 0.0565 µM in test [3]; 0.609 µM and 1.52 µM in test [4]; 5.05 µM and 13.3 µM in [5]; 0.14 µM and 1.12 µM in test [6]. Besides, the TGI is 0.0309 µM and 0.185 µM in [7]; 0.0199 µM and 0.0229 µM in test [8]; 0.505 µM and 1.39 µM in test [9]; 0.422 µM and 1.17 µM in test [10].

On to `N=c1c2c(=O)n3c(nc2nc2sc4ccc(Cl)cc4n12)-c1ccccc1Sc1ccccc1-3`, for which the GI50 in [1] is 2.32 µM; in test [2], 2.34 µM; in test [3] it was 1.61 µM; in [4], 2.99 µM; in test [5] it was 2.05 µM; in [6] it was 2.6 µM. Moreover, the GI50 is 1.44 µM in test [7], 1.42 µM in test [8], 3.7 µM in [9] and 3.05 µM in [10]. In addition, the TGI was greater than 100 µM in test [1]; 10.3 µM in test [2]; greater than 100 µM in [3]; 10.6 µM in [4]; 7.5 µM in test [5]; greater than 100 µM in test [6]. In addition, the TGI was greater than 100 µM in test [7], 3.86 µM in test [8], 25.2 µM in test [9] and 16.1 µM in test [10].

In the case of `COc1ccc(C2SC(C)C(=O)N2NC(=O)C(O)c2ccccc2)cc1` (centres undefined), the GI50 in [1], in [2], in test [3], in test [4], in [5] and in test [6] was greater than 100 µM throughout. The GI50 in test [7] is greater than 100 µM; in test [8] it was greater than 100 µM; in test [9], 63.1 µM; in test [10] it was greater than 100 µM. In addition, the TGI in test [1], in test [2], in test [3], in test [4], in test [5] and in test [6] was greater than 100 µM each time. Besides, the TGI in test [7], in test [8], in [9] and in test [10] was greater than 100 µM each time.

Regarding `Cn1cc(-c2nc(-c3cn(C)c4ncccc34)cs2)c2cc(F)ccc21`, the GI50 in test [1] was 2.41 µM; in test [2] it was 0.775 µM; in [3], 0.358 µM; in [4] it was 0.777 µM; in [5] it was 0.511 µM; in test [6] it was 2.13 µM. Moreover, the GI50 in test [7] is 3.65 µM; in test [8], 0.847 µM; in test [9], 2.4 µM; in test [10] it was 1.23 µM. Besides, the TGI is greater than 100 µM in test [1]; 41.2 µM in [2]; greater than 100 µM in test [3]; 12.4 µM in [4]; 8.61 µM in test [5]; 32 µM in test [6]. In addition, the TGI in test [7] is greater than 100 µM; in test [8] it was 3.37 µM; in test [9], 21.2 µM; in [10] it was greater than 100 µM.

Turning to `Cc1ccc(S(=O)(=O)C2=C3C(=C(c4ccccc4)c4ccccc43)CN(S(=O)(=O)c3ccc(C)cc3)C2)cc1`, the GI50 was 0.446 µM in test [1]; 2 µM in [2]; 2.08 µM in test [3]; 5.63 µM in [4]; 2.98 µM in test [5]; 3.39 µM in test [6]. Besides, the GI50 is 1.41 µM in test [7], 5.04 µM in [8], greater than 100 µM in test [9] and 0.636 µM in test [10]. The TGI is greater than 100 µM in test [1]; 7.78 µM in test [2]; greater than 100 µM in [3]; 34.4 µM in test [4]; 90.7 µM in [5]; greater than 100 µM in test [6]. The TGI was 7.41 µM in test [7], 18.3 µM in test [8], greater than 100 µM in test [9] and 3.4 µM in test [10].

Consider `Cc1ccc(S(=O)(=O)N2C/C(=C\c3cc(F)cc(F)c3)C(=O)/C(=C/c3cc(F)cc(F)c3)C2)cc1`, for which the GI50 in test [1] is 0.0748 µM; in test [2], 0.162 µM; in test [3], 0.0605 µM; in [4], 0.429 µM; in test [5], 0.447 µM; in test [6], 0.22 µM. Also, the GI50 was 0.0362 µM in test [7], 0.272 µM in test [8], 2.3 µM in test [9] and 0.0582 µM in [10]. Besides, the TGI amounted to 0.951 µM in test [1]; 0.513 µM in [2]; 1.24 µM in [3]; 1.72 µM in test [4]; 12.7 µM in test [5]; 0.612 µM in test [6]. The TGI worked out at 0.254 µM in test [7], 0.908 µM in test [8], 7.53 µM in [9] and 0.283 µM in [10].

In the case of `COc1cccc(-c2cc(NCc3ccc4c(c3)OCO4)nc(N)n2)c1`, the GI50 is 0.0762 µM in test [1]; 0.0473 µM in test [2]; 0.041 µM in test [3]; 0.0479 µM in [4]; 0.0458 µM in [5]; 0.0868 µM in [6]. Besides, the GI50 in test [7] is 0.172 µM; in test [8], 0.0432 µM; in test [9] it was 0.0526 µM; in [10], 0.0422 µM. Besides, the TGI in test [1] is greater than 100 µM; in [2], 11.6 µM; in test [3], greater than 34 µM; in test [4], 1.91 µM; in test [5], 0.494 µM; in test [6] it was 48.3 µM. The TGI in [7] came out at 34.2 µM; in test [8], 3.6 µM; in [9] it was 0.583 µM; in test [10], 16.5 µM.

As for `Cc1cc(NC(=O)C(=O)Cc2nc3ccccc3s2)ccc1Cl`, the TGI in test [1], in test [2], in [3], in [4], in test [5] and in test [6] was greater than 100 µM each time. Besides, the TGI in [7], in test [8], in test [9] and in test [10] was greater than 100 µM in each case.

For `COc1ccc(OC)c2c3c(ncc12)-c1cc2c(cc1C3)OCO2`, the GI50 was greater than 100 µM in test [1]; 0.249 µM in [2]; 24.6 µM in [3]; 0.316 µM in [4]; greater than 100 µM in test [5]; greater than 100 µM in test [6]. The GI50 in test [7] was greater than 100 µM; in test [8] it was 22.1 µM; in test [9] it was greater than 100 µM; in test [10] it was greater than 100 µM. Further, the TGI in test [1], in test [2], in test [3], in test [4], in test [5] and in test [6] was greater than 100 µM throughout. The TGI in test [7], in [8], in test [9] and in test [10] was greater than 100 µM in each case.

Regarding `COc1ccc2cc(C(=O)/C=C/c3ccccc3OC)ccc2c1`, the GI50 is 1.16 µM in test [1]; 1.4 µM in test [2]; 0.669 µM in test [3]; 4.34 µM in test [4]; 3.19 µM in test [5]; 2.62 µM in test [6]. For the same compound, the GI50 in test [7] was 1.65 µM; in test [8], 2.75 µM; in [9], 12.7 µM; in [10], 2.81 µM. Besides, the TGI is 7.52 µM in test [1]; 6.5 µM in test [2]; 25.6 µM in [4]; greater than 37.4 µM in [5]; 23.1 µM in [6]; 10.6 µM in test [7]. In addition, the TGI is 15.9 µM in [8], greater than 100 µM in test [9] and greater than 33.2 µM in test [10].

Take `COc1ccc2c(c1)CC[C@@H]1[C@@H]2CC[C@]2(C)c3c(cc(C(=O)c4ccccc4)c4sccc34)C[C@@H]12`: the GI50 in test [1] is greater than 100 µM; in test [2] it was greater than 100 µM; in test [3], greater than 100 µM; in [4], 75.4 µM; in [5], greater than 100 µM; in test [6] it was 38.1 µM. Further, the GI50 in test [7], in [8], in test [9] and in test [10] was greater than 100 µM each time. The TGI in test [1], in test [2], in [3], in [4], in test [5] and in test [6] was greater than 100 µM throughout. Also, the TGI in [7], in [8], in [9] and in test [10] was greater than 100 µM throughout.

Regarding `CSc1ccc2c(c1)C(=O)c1c-2n(CCCN=[N+]=[N-])c(=O)c2cc([N+](=O)[O-])ccc12`, the GI50 in [1] was 0.239 µM; in [2], 1.69 µM; in test [3] it was 1.99 µM; in [4] it was 1.29 µM; in test [5], 3.15 µM; in test [6], 5.58 µM. In addition, the GI50 in test [7] was 1.72 µM; in test [8] it was 2.56 µM; in test [9], 0.861 µM; in test [10], 1.72 µM. Moreover, the TGI was 10.9 µM in test [1]; greater than 100 µM in [2]; greater than 40.2 µM in test [3]; greater than 100 µM in test [4]; greater than 100 µM in test [5]; greater than 100 µM in [6]. Further, the TGI in test [7] was 23.2 µM; in [8], 16.4 µM; in test [9] it was greater than 30.5 µM; in test [10], greater than 100 µM.

Regarding `O=S(=O)(c1ccccc1)C1CN(Cc2ccccc2)CCN(Cc2ccccc2)C1`, the TGI in test [1] is greater than 100 µM; in test [2], greater than 100 µM; in [3], greater than 100 µM; in test [4], greater than 100 µM; in [5] it was 78.1 µM; in [6] it was 45.3 µM. Moreover, the TGI in test [7] was 53.4 µM; in [8] it was 59.3 µM; in test [9], greater than 100 µM; in [10], greater than 78.7 µM.

Take `NNc1nc(-c2ccccn2)nc2sc3c(c12)CCCCCC3`: the GI50 in test [1] was 4.42 µM; in test [2] it was 3.53 µM; in test [3] it was 3.78 µM; in test [4], 5.46 µM; in test [5], 0.453 µM; in [6], 3.98 µM. Further, the GI50 in [7] is 3.25 µM; in test [8] it was 3.16 µM; in [9], 30.9 µM; in [10], 4.53 µM. Also, the TGI is greater than 100 µM in test [1]; greater than 100 µM in test [2]; greater than 100 µM in test [3]; 46.8 µM in [4]; 52.3 µM in test [5]; greater than 100 µM in [6]. For the same compound, the TGI in [7] is 24.5 µM; in [8], 24.1 µM; in [9] it was greater than 100 µM; in test [10], greater than 100 µM.

On to `N=C1N=Nc2nc(C3(c4nc5n(c4O)C(=N)N=N5)Cc4ccccc4C3=O)c(O)n21` (centres undefined), for which the TGI in test [1], in test [2], in test [3], in test [4], in [5] and in test [6] was greater than 100 µM throughout. In addition, the TGI in [7], in test [8], in [9] and in [10] was greater than 100 µM each time.
